Test [1] is described as follows: AlphaScreen counterscreen against bio-H3K4me2 peptide in the absence of enzyme (artifact signal).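 As to all read-outs here: counterscreen run without enzyme against bio-H3K4me2 peptide to remove false positive hits from the JARID1 demethylase AlphaScreen screen.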 The conditions noted are these: for Artifact Signal (percent): effect of the compound when incubated with bio-H3K4me2 peptide (counterscreen, no enzyme); for Artifact signal: effect of the compound when it is incubated with bio-H3K4me2 peptide: counterscreen, no enzyme. (In general: In Alpha technology, singlet oxygen from a donor bead excites a nearby acceptor bead.)

For the next test, the target named is T1, JARID1B (Homo sapiens, UniProt Q9UGL1).
T1 construct: The FLAG tagged full length JARID1B enzyme was expressed in Sf21 insect cells using FLAG-JARID1B baculoviruses; FLAG (N); made in house; host or cells: Sf21 insect cells (baculovirus)
T1 sequence (Q9UGL1 whole entry): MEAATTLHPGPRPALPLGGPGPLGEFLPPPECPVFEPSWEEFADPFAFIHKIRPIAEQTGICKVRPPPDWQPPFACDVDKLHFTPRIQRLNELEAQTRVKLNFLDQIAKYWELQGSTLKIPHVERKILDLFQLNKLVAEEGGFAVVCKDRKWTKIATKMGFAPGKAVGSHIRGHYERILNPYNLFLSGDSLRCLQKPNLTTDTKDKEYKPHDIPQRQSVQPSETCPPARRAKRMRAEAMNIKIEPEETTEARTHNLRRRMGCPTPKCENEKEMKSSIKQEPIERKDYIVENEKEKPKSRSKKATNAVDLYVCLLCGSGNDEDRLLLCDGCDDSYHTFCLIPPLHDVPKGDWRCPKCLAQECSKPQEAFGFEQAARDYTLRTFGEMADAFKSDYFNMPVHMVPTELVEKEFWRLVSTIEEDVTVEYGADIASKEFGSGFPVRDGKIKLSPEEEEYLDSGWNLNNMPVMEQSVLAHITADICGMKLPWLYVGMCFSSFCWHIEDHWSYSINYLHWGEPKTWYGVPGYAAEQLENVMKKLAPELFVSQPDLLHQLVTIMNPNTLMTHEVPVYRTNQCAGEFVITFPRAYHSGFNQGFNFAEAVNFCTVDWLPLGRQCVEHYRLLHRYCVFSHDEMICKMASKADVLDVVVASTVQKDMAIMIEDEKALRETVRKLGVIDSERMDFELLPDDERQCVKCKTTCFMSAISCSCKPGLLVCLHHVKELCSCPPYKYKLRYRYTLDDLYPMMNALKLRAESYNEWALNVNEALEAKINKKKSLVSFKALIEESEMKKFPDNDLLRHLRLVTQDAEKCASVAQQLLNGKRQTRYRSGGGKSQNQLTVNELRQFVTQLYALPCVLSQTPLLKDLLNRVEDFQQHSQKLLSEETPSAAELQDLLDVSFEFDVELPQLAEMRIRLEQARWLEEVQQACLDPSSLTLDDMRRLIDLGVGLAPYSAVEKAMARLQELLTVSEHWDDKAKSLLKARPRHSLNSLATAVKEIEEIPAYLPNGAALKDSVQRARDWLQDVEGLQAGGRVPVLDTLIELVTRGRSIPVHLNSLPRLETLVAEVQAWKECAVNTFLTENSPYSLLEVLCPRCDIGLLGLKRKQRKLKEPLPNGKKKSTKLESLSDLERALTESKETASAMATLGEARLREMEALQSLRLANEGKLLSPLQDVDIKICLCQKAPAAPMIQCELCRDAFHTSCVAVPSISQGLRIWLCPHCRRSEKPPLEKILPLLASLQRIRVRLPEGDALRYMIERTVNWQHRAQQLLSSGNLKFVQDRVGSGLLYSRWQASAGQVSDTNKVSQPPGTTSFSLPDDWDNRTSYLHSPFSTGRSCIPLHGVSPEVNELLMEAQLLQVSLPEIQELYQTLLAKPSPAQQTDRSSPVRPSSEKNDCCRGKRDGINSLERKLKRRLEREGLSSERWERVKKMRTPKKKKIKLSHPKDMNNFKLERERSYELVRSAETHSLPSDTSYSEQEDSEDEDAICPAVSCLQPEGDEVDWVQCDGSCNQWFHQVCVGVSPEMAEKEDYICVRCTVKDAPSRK
The experiment in a line: FLAG-JARID1B histone demethylase assay with AlphaScreen detection (HTS and dose response).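 As to Assay Signal (percent): compound tested at 20 µM.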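 As to Assay − Artifact Signal (percent): compound tested at 20 µM.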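 As to all read-outs here: FLAG-tagged JARID1B at 4 nM acting on a biotinylated H3K4me3 peptide, demethylation read by AlphaScreen luminescence, with hits checked against bio-H3K4me2 without enzyme.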 The following applies: for Assay − Artifact Signal (percent): assay signal minus artifact signal; for inhibition at 20 µM: read-out: Inhibitory effect (percent); for Assay Signal (percent) / Validation result of HTS active: effect of the compound in the JARID1B AlphaScreen demethylase assay: validation of HTS actives; for Assay Signal (percent): effect of compound in JARID1B AlphaScreen assay; for Validation result of HTS active: effect of the compound in the JARID1B AlphaScreen demethylase assay: total signal before subtraction of artifact signal. The class given is biochemical.

Where [2] appears, read: high-throughput screen, compound 20 μM, standard demethylase conditions (10 μM α-KG, 50 μM Fe (II)).
Setting [3] is: high-throughput screen, compound 20 μM, IDs marked *: additional hits under reaction condition with 1 mM α-KG.
Where [4] appears, read: dose response at 15 μM (low) Fe (II), read-out: IC50 (μM) low Fe (II).
[5] abbreviates: dose response at 50 μM (high) Fe (II), read-out: IC50 (μM) high Fe (II).

From patent publication US20150272939A1, “Identification of Small Molecule Inhibitors of Jumonji AT-Rich Interactive Domain 1A (JARID1A) and 1B (JARID1B) Histone Demethylase” (Yale University, priority 2012, published 2015) come the findings set out here.

Where a name gives a salt, the structure may show the parent alone. Read-outs that look alike come from different tables or passages of the source.

A word on the IC50: it is the concentration at which inhibition is half-maximal.

Turning to `N#CC(=CC=Cc1ccco1)C(N)=S` (single isomer, unassigned) [YU144893], the “Artifact Signal (percent)” value in test [1] was determined as 40.11%. At JARID1B, the “Assay − Artifact Signal (percent)” value is reported as 22.61% and the “Assay Signal (percent)” value amounted to 62.72%. The inhibition at 20 µM on JARID1B (setting [2]) amounted to 44.6%.

`Cn1c(C(C#N)=Cc2ccncc2)nc2ccccc21` (single isomer, unassigned) [YU146842]: in test [1], the “Artifact Signal (percent)” value is −6.95%. Besides, on JARID1B, the “Assay − Artifact Signal (percent)” value is on record as 104.16% and the “Assay Signal (percent)” value was found to be 97.21%. Besides, at JARID1B (setting [2]), the inhibition at 20 µM was determined as 90.8%.

Regarding `Cn1nnnc1SCC1=C(C(=O)O)N2C(=O)[C@H](NC(=O)C(O)c3ccccc3)C2SC1` (stereo in doubt) [YU034265, CEFAMANDOLE SODIUM, reference compound], at JARID1B (setting [3]), the inhibition at 20 µM stood at 40.5%.

Turning to `O=C(OC[C@H]1O[C@@H](OC(=O)c2cc(O)c(O)c(OC(=O)c3cc(O)c(O)c(O)c3)c2)[C@H](OC(=O)c2cc(O)c(O)c(OC(=O)c3cc(O)c(O)c(O)c3)c2)[C@@H](OC(=O)c2cc(O)c(O)c(OC(=O)c3cc(O)c(O)c(O)c3)c2)[C@@H]1OC(=O)c1cc(O)c(O)c(OC(=O)c2cc(O)c(O)c(O)c2)c1)c1cc(O)c(O)c(OC(=O)c2cc(O)c(O)c(O)c2)c1` (stereo in doubt) [YU155507, TANNIC ACID, reference compound], on JARID1B (setting [2]), the “Inhibitory effect (percent)” value is 105.46%.

In the case of `O=C(O)/C=C/c1ccc(O)c(O)c1` [Caffeic acid, reference compound], the IC50 came to 1.71 µM on JARID1B (setting [4]) and 2.88 µM at JARID1B (setting [5]).

`Cn1c(/C(C#N)=C/c2ccncc2)nc2ccccc21` [ChemBridge 6339039]: the IC50 amounted to 1.8 µM at JARID1B (setting [4]) and 1.31 µM at JARID1B (setting [5]).

Take `N#C/C(=C\c1ccncc1)c1nc2cc(C(F)(F)F)ccc2s1` [ChemBridge 7812182]: the IC50 worked out at 1.66 µM at JARID1B (setting [4]) and 1.15 µM at JARID1B (setting [5]).

For the compound `O=c1c2ccccc2[se]n1-c1ccccc1` [Ebselen, ebselen, reference compound], the IC50 on JARID1B (Fe (II) concentration not stated, read-out: IC50 against JARID1B) is ~6 µM; at JARID1B (setting [4]), 7.63 µM; on JARID1B (setting [5]) it was 5.17 µM.

Consider `O=c1ccc2cc(O)c(O)cc2o1` [Esculetin, esculetin, reference compound], for which the figures for the IC50 at JARID1B (setting [4]) and on JARID1B (setting [5]) were 2.57 µM and 4.6 µM, respectively.

With `CC(C)(O)[C@@H]1[C@H]2OC(=O)[C@@H]1[C@]1(O)C[C@H]3O[C@]34C(=O)O[C@H]2[C@]14C` [YU033619, PICROTIN, reference compound], at JARID1B, the inhibition at 20 µM amounted to 46.9% and the “Validation result of HTS active: effect of the compound in the JARID1B AlphaScreen demethylase assay” value (“Validation result of HTS active” for short) is reported as −12.66.

Turning to `CC(=O)O[C@H]1C[C@@]2(C)[C@@H](C[C@@H](O)[C@H]3[C@@]4(C)CC[C@@H](O)[C@@H](C)[C@@H]4CC[C@@]32C)/C1=C(\CCC=C(C)C)C(=O)O` [YU033837, FUSIDIC ACID, reference compound], the inhibition at 20 µM at JARID1B (setting [2]) amounted to 63.1%. Further, the “Validation result of HTS active” value at JARID1B is 0.93.

`Cc1ccccc1C(OCCN(C)C)c1ccccc1` (stereo not shown) [YU033938, ORPHENADRINE CITRATE, reference compound]: the “Artifact Signal (percent)” value in test [1] stood at 0.79%.

`c1ccc2c(c1)CCCC2C1=NCCN1` (stereo not shown) [YU034020, TETRAHYDROZOLINE HYDROCHLORIDE, reference compound]: the inhibition at 20 µM at JARID1B (setting [3]) stood at 99.2%. In addition, the “Validation result of HTS active” value on JARID1B is −5.13.

In the case of `C[CH2][Hg][S]c1ccccc1C(=O)[O-]` [YU034023, THIMEROSAL, reference compound], in test [1], the “Artifact signal: effect of the compound when it is incubated with bio-H3K4me2 peptide” value is −5.81.

For `CC(=O)[O][Hg][c]1ccccc1` [YU034074, PHEN[…], ACETATE, reference compound], in test [1], the “Artifact signal: effect of the compound when it is incubated with bio-H3K4me2 peptide” value is −10.79.

`O=c1c2ccccc2[se]n1-c1ccccc1` [YU034226, EBSELEN, reference compound]: the inhibition at 20 µM on JARID1B (setting [3]) was 56.5%; on JARID1B (setting [2]) it was 41.4%.

Take `O=C1c2c(O)ccc(O)c2C(=O)c2c(NCCNCCO)ccc(NCCNCCO)c21` [YU034420, MITOXANTHRONE HYDROCHLORIDE, reference compound]: on JARID1B, the “Assay − Artifact Signal (percent)” value is reported as 10.55% and the “Assay Signal (percent)” value is 99.87%. Further, on JARID1B (setting [2]), the inhibition at 20 µM stood at 101%.

Consider `OC1CCCCC1N1CCC(c2ccccc2)CC1` (stereo not shown) [YU034447, VESAMICOL HYDROCHLORIDE, reference compound], for which, on JARID1B, the “Assay − Artifact Signal (percent)” value is reported as 8.85%, the inhibition at 20 µM amounted to 40.5% and the “Assay Signal (percent)” value is on record as 8.67%.

As to `Cc1cc(/C=C/c2ccc3cc(N(C)C)ccc3[n+]2C)c(C)n1-c1ccccc1` [YU034547, PYRVINIUM PAMOATE, reference compound], the inhibition at 20 µM on JARID1B (setting [2]) was 64.4%. For the same compound, on JARID1B, the “Validation result of HTS active” value was −3.96.

Consider `CC[C@H]1OC(=O)[C@H](C)[C@@H](OC2CC(C)(OC)C(O)C(C)O2)[C@H](C)[C@@H](S2(C)(=O)NC3C(N(C)C)CC(C)NC32)[C@](C)(O)C[C@@H](C)/C(=N\C)[C@H](C)[C@@H](O)[C@]1(C)O` (stereo partly shown) [YU035181], for which the “Artifact Signal (percent)” value in test [1] is listed as 4.88%.

As to `Cc1cc(C)nc(N(C#N)C(=S)N(C)C)n1` [YU145655], on JARID1B (setting [2]), the inhibition at 20 µM was 54.7%.

Turning to `Cn1c(=O)n(C)c2cc(S(=O)(=O)NNc3ccccc3)ccc21` [YU152899], at JARID1B (setting [2]), the inhibition at 20 µM is 49.6%.

For the compound `O=C(O[C@@H]1Cc2c(O)cc(O)cc2O[C@@H]1c1ccc(O)c(O)c1)c1cc(O)c(O)c(O)c1` [YU155085, EPICATECHIN MONOGALLATE, reference compound], the inhibition at 20 µM on JARID1B (setting [2]) came out at 99.5%.

As for `O=C(O[C@@H]1Cc2c(O)cc(O)cc2O[C@@H]1c1cc(O)c(O)c(O)c1)c1cc(O)c(O)c(O)c1` [YU155090, EPIGALLOCATECHIN-3- MONOGALLATE, reference compound], the “Inhibitory effect (percent)” value at JARID1B (setting [2]) was 98.42%.

Consider `COc1cccc2c1C(=O)c1c(O)c3c(c(O)c1C2=O)C[C@@](O)(C(C)=O)C[C@@H]3O[C@H]1C[C@H](N)[C@H](O)[C@H](C)O1` [YU155188, DAUNORUBICIN, reference compound], for which the inhibition at 20 µM at JARID1B (setting [2]) turned out to be 74.7%.

Turning to `O=c1c(O)c(-c2ccc(O)c(O)c2)oc2c(O[C@@H]3O[C@H](CO)[C@@H](O)[C@H](O)[C@H]3O)c(O)cc(O)c12` [YU155353, GOSSYPIN, reference compound], at JARID1B (setting [2]), the inhibition at 20 µM is 89%.

For `O=c1c2cc(O)c(O)cc2oc2cc(O)c([C@@H]3O[C@H](CO)[C@@H](O)[C@H](O)[C@H]3O)c(O)c12` [YU155356, MANGIFERIN, reference compound], the inhibition at 20 µM at JARID1B (setting [2]) was determined as 98.8%.

With `O=c1ccc2cc(O)c(O)cc2o1` [YU155534, ESCULETIN, reference compound], in test [1], the “Artifact Signal (percent)” value turned out to be 6.30%.

Turning to `Cc1noc2c1C(c1ccc(O)c(O)c1)C1=C(CCCC1=O)N2` (stereo not shown) [YU185529], the inhibition at 20 µM at JARID1B (setting [2]) worked out at 61.5%.

Consider `O=C(Nc1ccc(N2Cc3ccccc3OC(c3ccccc3)C2)c(C(=O)O)c1)c1ccccc1F` (stereo not shown) [YU208215], for which the inhibition at 20 µM at JARID1B (setting [2]) turned out to be 44.6%.

As to `Cl.Oc1cc2c(cc1O)[C@H]1c3ccccc3CN[C@@H]1CC2` [YU221065, Benzo[a]phenanthridine-10,11-diol, 5,6,6a,7,8,12b-hexahydro-, trans-, reference compound], at JARID1B, the “Assay − Artifact Signal (percent)” value is 55.73% and the “Assay Signal (percent)” value is recorded as 59.95%. Also, the inhibition at 20 µM on JARID1B (setting [2]) turned out to be 49.1%.

As to “TYROTHRICIN [YU034048, reference compound]”, the “Inhibitory effect (percent)” value on JARID1B (setting [2]) is recorded as 68.66%.
